Key:
[1] = test system: HSV-2; assay: Anti-HSV-2 replication assay in Vero cells, titer by plaque assay; type: cell-based, herpes simplex virus 2; settings: for Anti-HSV-2 Log10 suppression 5 μM / Anti-HSV-2 Log10 suppression 50 μM: moi 0.1, 24 h, relative to DMSO; for Anti-HSV-2 Log10 suppression 5 μM (screening symbol) / Anti-HSV-2 Log10 suppression 50 μM (screening symbol): visual inspection
Procedure: (§1) Anti-HSV-1 and -HSV-2 Replication Assay. Compounds to be screened were diluted in PBS supplemented to contain 2% newborn calf serum and 1% glutamine, and added in 100 μL, volume to confluent cell monolayers in 24-well cluster plates. Immediately thereafter HSV-1 and HSV-2, diluted in the supplemented PBS medium, were added to the wells in 50 μl volume such that the final concentration of compound was 50 μM and 5 μM and the multiplicity of infection was 0.1. The plates were incubated at 37° C. for 1 hour and then virus-containing inoculum was removed and the wells were washed once in PBS. Compounds, diluted to 50 μM and 5 μM in DMEM supplemented to contain 2% newborn calf serum and 1% each penicillin/streptomycin, were added at 0.5 mL/well. Plates were incubated at 37° C. an additional 23 hr, and then the plates were visually inspected through a phase contrast microscope for cytopathic effect, and for toxic effect. […] The entire contents of each well were collected by scraping. Samples were frozen at −80° C., and then subsequently thawed, sonicated, and infectious virus titer was determined by standard plaque assay on Vero cell monolayers. Because the compounds were dissolved at 10 mM in 100% DMSO, equivalent dilutions of DMSO were added to additional wells as a control for effects of the diluent. Each experiment was repeated once. EC50 values were determined as above except that serial dilutions of the compound to be tested were prepared starting at 50 μM. The inhibitory values were calculated by non-linear curve-fitting in GraphPad Prism.
(§2) Monolayers were microscopically inspected 24 hours post-infection and wells in which more cells were visually healthier than the DMSO-treated controls were collected. Viral titers in the culture lysates were then determined by standard plaque assay on Vero cells. Inhibition of viral replication was categorized as <1 log10 relative to the DMSO-treated control, 1 to 3 log10 suppression, or ≥3 log10 suppression. […] Additionally, four polyoxygenated heterocycle compounds were tested (#128, 138, 139, 140).

[2] = biological target: T1, human RNaseH1 (Homo sapiens, UniProt O60930); assay: Biochemical inhibition of human RNaseH1 (oligonucleotide-directed RNA cleavage assay); settings: compounds at 60, 20 or 10 μM
T1 construct: hexahistidine; made in house; host or cells: E. coli
T1 sequence (O60930 1-286): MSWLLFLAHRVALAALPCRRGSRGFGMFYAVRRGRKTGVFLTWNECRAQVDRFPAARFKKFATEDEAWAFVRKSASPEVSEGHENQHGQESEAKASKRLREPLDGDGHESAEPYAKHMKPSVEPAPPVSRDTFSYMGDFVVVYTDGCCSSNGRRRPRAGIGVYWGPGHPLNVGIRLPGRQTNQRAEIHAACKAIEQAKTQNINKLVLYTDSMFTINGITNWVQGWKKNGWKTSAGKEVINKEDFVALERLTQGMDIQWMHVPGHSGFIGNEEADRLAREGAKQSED
Procedure: (§3) Biochemical inhibition of HBV RNaseH and human RNaseH1 activity. […] RNaseH activity was measured using an oligonucleotide-directed RNA cleavage assay in which a DNA oligonucleotide is annealed to an internally ^32P-labeled RNA, the RNA:DNA heteroduplex is incubated with the enzyme to permit cleavage, and then the RNA cleavage products are resolved by electrophoresis and detected by autoradiography. The compounds were included in the reaction mixes at 60, 20, or 10 μM and the amount of the RNA cleavage products in the compound-containing reactions was compared to reactions in which an equivalent concentration of DMSO was added as a vehicle control. The data were quantified using ImageJ.

[3] = biological target: T2, HBV RNaseH (Hepatitis B virus genotype A2 subtype adw2, UniProt P03159); assay: Biochemical inhibition of HBV RNaseH (oligonucleotide-directed RNA cleavage assay); settings: compounds at 60, 20 or 10 μM
T2 construct: One of the inventors recently produced active recombinant HBV RNase H; hexahistidine; made in house; host or cells: E. coli
T2 sequence (P03159 693-845): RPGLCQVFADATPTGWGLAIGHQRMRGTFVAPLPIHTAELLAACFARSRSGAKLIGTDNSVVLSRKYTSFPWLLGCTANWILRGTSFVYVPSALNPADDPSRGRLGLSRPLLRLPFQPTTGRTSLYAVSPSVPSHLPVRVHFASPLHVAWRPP
Procedure: as §3

[4] = test system: HSV-1; assay: Anti-HSV-1 replication assay in Vero cells, titer by plaque assay; type: cell-based, herpes simplex virus 1; settings: for Anti-HSV-1 Log10 suppression 5 μM / Anti-HSV-1 Log10 suppression 50 μM: moi 0.1, 24 h, relative to DMSO; for Anti-HSV-1 Log10 suppression 5 μM (screening symbol) / Anti-HSV-1 Log10 suppression 50 μM (screening symbol): visual inspection
Procedure: as §1, §2

Row | SMILES | Anti-Human RNaseH1 [2] | Anti-HBV RNaseH [3] | Anti-HSV-2 Log10 suppression 5 μM [1] [log10] | Anti-HSV-2 Log10 suppression 50 μM [1] [log10] | Anti-HSV-1 Log10 suppression 5 μM [4] [log10] | Anti-HSV-1 Log10 suppression 50 μM [4] [log10] | Anti-HSV-2 Log10 suppression 5 μM (screening symbol) [1] | Anti-HSV-2 Log10 suppression 50 μM (screening symbol) [1] | Anti-HSV-1 Log10 suppression 5 μM (screening symbol) [4] | Anti-HSV-1 Log10 suppression 50 μM (screening symbol) [4]
1 | O=c1c(O)c(-c2cc(O)c(O)c(O)c2)oc2cc(O)cc(O)c12 [Compound 9] | ++ (inhibition at 20 μM) | ++ (inhibition at 20 μM) | −0.04 | 0.67 | 0.30 | 0.38 |  |  |  | 
2 | Cc1nnc(C(=O)NC(C)(C)c2nc(C(=O)NCc3ccc(F)cc3)c(O)c(=O)n2C)o1 [Compound 11, Raltegravir, reference compound] | − (no inhibition at 60 μM) | − (no inhibition at 60 μM) | 0.25 | 0.35 | 0.2 | 0.37 |  |  |  | 
3 | Cc1cc(=O)oc2cc(O)c(O)cc12 [Compound 34] | − (no inhibition at 60 μM) | ++ (inhibition at 20 μM) | −0.07 | 3.29 | 0.08 | 2.64 |  |  |  | 
4 | CCOC(=O)c1cc2ccccc2n(O)c1=O [Compound 42] | + (inhibition at 60 μM) | − (no inhibition at 60 μM) |  |  |  |  | − | − | − | −
5 | Cc1cc(C)n(O)c(=O)c1C#N [Compound 44] | − (no inhibition at 60 μM) | − (no inhibition at 60 μM) |  |  |  |  | − | − | − | −
6 | O=C1c2cccc3cccc(c23)C(=O)N1O [Compound 45] | − (no inhibition at 60 μM) | − (no inhibition at 60 μM) |  |  |  |  | − | − | − | −

Continued, in another order:

Row | Anti-Human RNaseH1 [2] | Anti-HBV RNaseH [3] | SMILES | Anti-HSV-2 Log10 suppression 5 μM [1] [log10] | Anti-HSV-2 Log10 suppression 50 μM [1] [log10] | Anti-HSV-1 Log10 suppression 5 μM [4] [log10] | Anti-HSV-1 Log10 suppression 50 μM [4] [log10] | Anti-HSV-2 Log10 suppression 5 μM (screening symbol) [1] | Anti-HSV-2 Log10 suppression 50 μM (screening symbol) [1] | Anti-HSV-1 Log10 suppression 5 μM (screening symbol) [4] | Anti-HSV-1 Log10 suppression 50 μM (screening symbol) [4]
7 | +++ (inhibition at 10 μM) | +++ (inhibition at 10 μM) | CN(C)c1ccc(-c2c3cc(O)c(=O)cc-3oc3cc(O)c(O)cc23)cc1 [Compound 35] |  |  |  |  | − | − | − | −
8 | +++ (inhibition at 10 μM) | +++ (inhibition at 10 μM) | O=c1cc2oc3cc(O)c(O)cc3c(-c3ccccn3)c-2cc1O [Compound 39] | 0.12 | 0.17 | 0.19 | 0.22 |  |  |  | 
9 | − (no inhibition at 60 μM) | − (no inhibition at 60 μM) | O=c1ccc2ccccc2n1O [Compound 43] | 0.31 | 1.13 | 0.31 | 1.31 |  |  |  | 

Reference: US10463664B2, “Inhibitors of HSV nucleotidyl transferases and uses therefor” (Saint Louis University, priority 2013, dated 2019)
